Test results: patent US6235769A, “Methods of preventing and treating neurological disorders with compounds that modulate the function of the C-RET receptor protein tyrosine kinase” (Sugen, Inc., priority 1998, dated 2001)

Key:
Format in all cases: cell-based
FLK-1 receptor = assay: FLK-1 ELISA, catalytic activity of the FLK-1 receptor in FLK-1/NIH3T3 cells; conditions: concentration that yielded a two-hundred percent increase in catalytic activity in the FLK-1 ELISA
Procedure: An enzyme linked immunosorbant assay (ELISA) can be conducted to measure the catalytic activity of the FLK-1 receptor and more specifically, the inhibition or activation of indolinone compounds of the catalytic activity of the FLK-1 receptor. The following assay was conducted to measure catalytic activity of the FLK-1 receptor in FLK-l/NIH3T3 cells.
One skilled in the art can adapt such a procedure to other receptor tyrosine protein kinases to identify compounds that modulate the function of the receptor.
This type of assay can be developed for nearly any RPTK using well known techniques utilized by persons of ordinary skill in the art. The FLK-1/NIH3T3 cell lines are also created by techniques well known to those skilled in the art. The NIH3T3 cells were stably transfected with gene constructs containing the FLK-1 gene. The nucleic acid vectors used for this type of procedure are commonly and commercially available to those skilled in the art. The methods of cloning the genes of interest into these nucleic acid vectors and the methods of transfecting these nucleic acid constructs into cells are also well known to those skilled in the art. Sambrook, Fritsch, Maniatis, Molecular Cloning, A Laboratory Manual 2nd Ed., Cold Spring Harbor Laboratory Press, 1989.
1. Coat Corning 96-well ELISA plates with 1.0 μg per well Cappel Anti-rabbit IgG antibody in 0.1 M Na2 CO3 pH 9.6. Bring final volume to 150 μL per well. Coat plates overnight at 4° C. Plates can be kept up to two weeks when stored at 4° C.
2. Grow cells in Growth media (DMEM, supplemental with 2.0 mM L-Glutamine, 10% FBS) in suitable culture dishes until confluent at 37° C., 5% CO2.
3. Harvest cells by trypsinization and seed in Corning 25850 polystyrene 96-well roundbottom cell plates, 25.000 cells/well in 200 μL of growth media.
4. Grow cells at least one day at 37° C., 5% CO2.
5. Wash cells with D-PBS 1×.
6. Add 200 μL/well of starvation media (DMEM, 2.0 mM 1-Glutamine, 0.1% FBS). Incubate overnight at 37° C., 5% CO2.
7. Dilute Compounds/Extracts 1:20 in polypropylene 96 well plates using starvation media. Dilute dimethylsulfoxide 1:20 for use in control wells.
8. Remove starvation media from 96 well cell culture plates and add 162 μL of fresh starvation media to each well.
9. Add 18 μL of 1:20 diluted Compound/Extract dilution (from step 7) to each well plus the 1:20 dimethylsulfoxide dilution to the control wells (+/-VEGF), for a final dilution of 1:200 after cell stimulation. Final dimethylsulfoxide is 0.5%. Incubate the plate at 37° C., 5% CO2 for two hours.
10. Remove unbound antibody from ELISA plates by inverting plate to remove liquid. Wash 3 times with TBSW+0.5% ethanolamine, pH 7.0. Pat the plate on a paper towel to remove excess liquid and bubbles.
11. Block plates with TBSW+0.5% Ethanolamine, pH 7.0, 150 μL per well. Incubate plate thirty minutes while shaking on a microtiter plate shaker.
12. Wash plate 3 times as described in step 10.
13. Add 0.5 μg/well affinity purified […] polyclonal rabbit antiserum. Bring final volume to 150 μL/well with TBSW+0.5% ethanolamine pH 7.0. Incubate plate for thirty minutes while shaking.
14. Add 180 μL starvation medium to the cells and stimulate cells with 20 μL/well 10.0 mM sodium ortho vanadate and 500 ng/mL VEGF (resulting in a final concentration of 1.0 mM sodium ortho vanadate and 50 ng/mL VEGF per well) for eight minutes at 37° C., 5% CO2. Negative control wells receive only starvation medium.
15. After eight minutes, media should be removed from the cells and washed one time with 200 μL/well PBS.
16. Lyse cells in 150 μL/well HNTG while shaking at room temperature for five minutes. HNTG formulation includes sodium ortho vanadate, sodium pyro phosphate and EDTA.
17. Wash ELISA plate three times as described in step 10.
18. Transfer cell lysates from the cell plate to ELISA plate and incubate while shaking for two hours. To transfer cell lysate pipette up and down while scrapping the wells.
19. […]

[1] = system: sek chimera (mouse SEK transmembrane and cytoplasmic domains fused to chicken TRKA extracellular domain); assay: Chimeric receptor activation in infected C6 glioma cells (anti-phosphotyrosine immunoblot), sek chimera; conditions: 50 ng/mL NGF, five minutes
Procedure: (§1) DNA constructs were generated, which encoded the transmembrane and cytoplasmic domains from human MCK-10, C-RET, mouse SEK, and rat TRKA fused to the chicken TRKA extracellular domain. These chimeric receptor constructs were then inserted into the adenovirus transfer vector, and recombinant viruses were generated and purified. Rat C6 glioma cells were infected with the recombinant viruses, and the resulting chimeric receptors were analyzed via immunoblot analysis.
(§2) The ability to activate the chimeras was evaluated by incubating the infected C6 monolayers with 50 ng/mL NGF for five minutes. The receptors were immunoprecipitated with the CTA antibody, immunoblotted, and probed either with the anti-phosphotyrosine antibody 4G10 or with the CTA antibody preparation.
(§3) C6 glioma cells were grown in Ham's Flo medium containing 10% fetal calf serum; for receptor activation experiments the medium was changed to 0.5% fetal calf serum 12 hours prior to stimulation.

[2] = system: MCK-10 chimera (human MCK-10 transmembrane and cytoplasmic domains fused to chicken TRKA extracellular domain); assay: Chimeric receptor activation in infected C6 glioma cells (anti-phosphotyrosine immunoblot), MCK-10 chimera; conditions: 50 ng/mL NGF, before or after incubation
Procedure: as §1, §2, §3

rat trkA receptor = assay: Receptor phosphorylation in cells expressing both rat and chicken trkA, rat receptor
Procedure: (§4) The assumption was tested by expressing both rat and chicken trkA receptors in the same cell and activating them with either neurotrophic growth factor (NGF), which binds both receptors, or with the CTA antibody, which binds only the chick receptor. […] The effects of the CTA antibody preparation were therefore not attributable to activation of endogenous trkA receptors.
(§5) The conditions for immunoprecipitation and immunoblotting used in the experiments were described previously (Clary et al., 1994, Mol. Biol. Cell 5: 549-563) with modifications as follows. Immunoblots were performed in Tris-buffered saline containing 0.1% Triton X-100, and filter blocking and antibody incubations were performed in the same buffer with 1% BSA. In other experiments, anti-phosphotyrosine detection was performed with biotinylated-4G10 monoclonal antibody followed by a peroxidase avidin-biotin complex. Other antibodies were detected with peroxidase coupled anti-mouse IgG, anti-rabbit IgG, or protein A as indicated. All peroxidase conjugates were detected using a chemiluminescence protocol (Pierce Chemical Co. Rockford, Ill.).

chicken trkA receptor = assay: Receptor phosphorylation in cells expressing both rat and chicken trkA, chick receptor; conditions: NGF or CTA
Procedure: as §4, §5

[3] = system: c-ret chimera (human C-RET transmembrane and cytoplasmic domains fused to chicken TRKA extracellular domain); assay: Chimeric receptor activation in infected C6 glioma cells (anti-phosphotyrosine immunoblot), c-ret chimera; conditions: 50 ng/mL NGF, five minutes
Procedure: as §1, §2, §3

| Compound | EC200 (FLK-1 receptor) | also measured |
| --- | --- | --- |
| CC(C)c1cc(C(C)C)c(/C=C2\C(=O)Nc3ccc(C(=O)O)cc32)[nH]1 [Indolinone 1] | 10 µM | – |
| CCc1cc(CC)c(/C=C2\C(=O)Nc3ccc(C(=O)O)cc32)[nH]1 [Indolinone 2] | 2.8 µM | – |
| Cc1cc(C)c(/C=C2\C(=O)Nc3ccc(CCC(=O)O)cc32)[nH]1 [Indolinone 3] | 32 µM | – |
| Cc1cc(C)c(/C=C2\C(=O)Nc3ccc(C(=O)O)cc32)[nH]1 [Indolinone 4] | 2.8 µM | – |
| Cc1ccc(/C=C2\C(=O)Nc3ccc(CCC(=O)O)cc32)s1 [Indolinone 5] | > 100 µM | – |
| Cc1ccc(/C=C2\C(=O)Nc3ccc(C(=O)O)cc32)s1 [Indolinone 6] | 46 µM | – |
| NGF: nerve growth factor, which binds to the extracellular region of the TRK receptor | – | activation of sek chimera [1]: NGF-dependent activation of the c-ret and sek chimeras was detected; phosphotyrosine of MCK-10 chimeric protein [2]: Phosphotyrosine was not detected; activation of the rat receptor (rat trkA receptor): activation of the rat receptor was detected only after NGF addition; phosphorylation of the chick receptor (chicken trkA receptor): became phosphorylated; activation of c-ret chimera [3]: NGF-dependent activation of the c-ret and sek chimeras was detected |
